According to PMC8162438, “Cancer cell-selective modulation of mitochondrial respiration and metabolism by potent organogold(III) dithiocarbamates” (Chemical Science, 2020):

System: MDA-MB-231
Experiment: Intracellular ROS analysis with DCF-DA (FACS)
Format: cell-based
Details: for Increase in ROS versus DMSO: 1 hour, DCF-DA
From the text: We examined the status of intracellular ROS induced by 2a. For this experiment, we employed the used 2′,7′-dichlorofluoresceindiacetate (DCF-DA),[103] a fluorogenic dye with an excitation/emission wavelength of 495/525 nm. DCF-DA enters into the cell and is subsequently deacetylated by cellular esterases where it is then oxidized by ROS to produce a fluorescent compound that can detected with flow cytometry (FACS) using the FITC channel.[104]
To quantify the amount of ROS produced, we subjected MDA-MB-231 cells to 2a at 10 and 20 μM to assess concentration dependence. Within 1 hour of treatment, we observed a 1.3× increase in ROS in cells treated with 2aversus DMSO (Fig. 11). At twice the concentration, 20 μM, we observed a 1.5× increase in ROS. […] When compared to the H2O2 control, 2a produces similar ROS levels in MDA-MB-231 cells (Fig. 11). […] To further solidify that the DCF-DA fluorescence is from ROS and not other reactive species such as RNS, we pre-treated cells with 10 mM N-acetyl cysteine for 2 h. NAC is a natural ROS scavenger and a key component in the formation of glutathione (GSH), which is a powerful antioxidant.[105,106] After pre-treatment, the cells were subjected to the same concentration of 2a (10 μM) for 1 h.
100 µL of dye into 900 µL of DMEM. Note: the working solution of JC-1 should always be prepared fresh and not stored for long-term use. Then, 100 µL/mL of DMEM were added to the cells and incubated at 37 °C for 20 minutes. Prior to imaging, the media was removed and replaced with room temperature PBS (2 mL). The cells were then visualized using confocal microscopy on a Nikon A1R Inverted Confocal Microscope. […]
For the wells that were pre-treated with NAC, a stock solution of NAC in DMEM was added at a concentration of 10 mM for 2 h prior to the addition of 2a. […] The cells were then analyzed using FACS with the FITC channel […]
Mitochondrial Metabolism Analysis with Seahorse XF96 Analysis. […] The optimum conditions were determined to be 30,000 cells/well and an FCCP injection concentration of 0.6 µM. […]

Question: Which “Increase in ROS versus DMSO” value (MDA-MB-231, 10 μM) does the source give for `C[N+](C)=C1[S][Au-2]2([S]1)[c]1ccccc1Cc1cccc[n+]12.F[P-](F)(F)(F)(F)F` (stereo not drawn) [2a] here?
Answer: The value was 1.3 ×.

Question: And the “Increase in ROS versus DMSO” value (MDA-MB-231, 20 μM)?
Answer: Its value is 1.5 ×.

Question: And the “ROS levels after NAC pre-treatment” value (MDA-MB-231, 10 mM NAC 2 h, then 10 μM for 1 h)?
Answer: Its value is “no increase in ROS levels”.
